Patent publication US9545105B2, “1-(heterocyclic carbonyl) piperidines” (BAYER INTELLECTUAL PROPERTY GMBH, priority 2010, dated 2017)

Legend:
[1] = log P by HPLC on reversed-phase column (C 18), EEC Directive 79/831 Annex V.A8; format: physicochemical; conditions: HPLC on reversed-phase column (C 18); 40° C.; 0.1% aqueous formic acid and acetonitrile; linear gradient 10% to 90% acetonitrile
Procedure: In table 1, the log P values were determined in accordance with EEC Directive 79/831 Annex V.A8 by HPLC (High Performance Liquid Chromatography) on a reversed-phase column (C 18), using the method described below: Temperature: 40° C.; Mobile phases: 0.1% aqueous formic acid and acetonitrile; linear gradient from 10% acetonitrile to 90% acetonitrile. Calibration was carried out using unbranched alkan-2-ones (comprising 3 to 16 carbon atoms) with known log P values (determination of the log P values by the retention times using linear interpolation between two successive alkanones). lambda-max-values were determined using UV-spectra from 200 nm to 400 nm and the peak values of the chromatographic signals.

Pyrenophora teres = assay: In vivo preventive test on Pyrenophora teres (barley); conditions: 500 ppm of active ingredient, evaluated 7-9 days after inoculation
Procedure: Solvent: 49 parts by weight of N,N-dimethylformamide Emulsifier: 1 part by weight of alkylaryl polyglycol ether To produce a suitable preparation of active compound, 1 part by weight of active compound is mixed with the stated amounts of solvent and emulsifier, and the concentrate is diluted with water to the desired concentration. To test for preventive activity, young plants are sprayed with the preparation of active compound at the stated rate of application. One day after this treatment, the plants are inoculated with an aqueous spore suspension of Pyrenophora teres. The plants remain for 48 hours in an incubation cabinet at 22° C. and a relative atmospheric humidity of 100%. Then the plants are placed in a greenhouse at a temperature of approximately 20° C. and a relative atmospheric humidity of approximately 80%. The test is evaluated 7-9 days after the inoculation. 0% means an efficacy which corresponds to that of the untreated control while an efficacy of 100% means that no disease is observed.

Alternaria solani = assay: In vivo preventive test on Alternaria solani (tomato); conditions: 500 ppm of active ingredient, evaluated 7 days after inoculation
Procedure: Solvent: 49 parts by weight of N,N-dimethylformamide Emulsifier: 1 part by weight of Alkylarylpolyglycolether To produce a suitable preparation of active compound, 1 part by weight of active compound is mixed with the stated amounts of solvent and emulsifier, and the concentrate is diluted with water to the desired concentration. To test for preventive activity, young plants are sprayed with the preparation of active compound at the stated rate of application. One day after this treatment, the plants are inoculated with an aqueous spore suspension of Alternaria solani. The plants remain for one day in an incubation cabinet at approximately 22° C. and a relative atmospheric humidity of 100%. Then the plants are placed in an incubation cabinet at approximately 20° C. and a relative atmospheric humidity of 96%. The test is evaluated 7 days after the inoculation. 0% means an efficacy which corresponds to that of the untreated control while an efficacy of 100% means that no disease is observed.

SMILES | logP [1] | Efficacy (Pyrenophora teres) | Efficacy (Alternaria solani)
Cc1ccccc1C1CCCCN1C(=O)c1c(C(F)F)nn(C)c1Cl (centres unmarked) [Example 5] | 3.37 | 95% | 90%
Cc1ccc(C2CCCCN2C(=O)c2c(C(F)F)nn(C)c2Cl)cc1C (centres unmarked) [Example 8] | 3.87 | 90% | 94%
Cc1cc(C)cc(C2CCCCN2C(=O)c2c(C(F)(F)F)cn(C)c2F)c1 (centres unmarked) [Example 34] | 4.27 | 100% | 90%
Cn1nc(C(F)F)c(C(=O)N2CCCCC2c2ccccc2Cl)c1Cl (centres unmarked) [Example 40] | 3.48 | 95% | 95%
Cn1nc(C(F)F)c(C(=O)N2CCCCC2c2cccc(Cl)c2)c1Cl (centres unmarked) [Example 47] | 3.60 | 100% | 100%
Cn1nc(C(F)F)c(C(=O)N2CCCCC2c2ccc(Cl)cc2)c1Cl (centres unmarked) [Example 55] | 3.67 | 80% | 95%
Cc1cc(C(=O)N2CCCCC2c2ccc3c(c2)OCO3)c(C)o1 (centres unmarked) [Example 58] | 3.33 | – | 78%
CCc1nn(C)c(F)c1C(=O)N1CCCCC1c1ccc2c(c1)OCO2 (centres unmarked) [Example 59] | 2.73 | 70% | 78%
Cc1nn(C)c(F)c1C(=O)N1CCCCC1c1ccc2c(c1)OCO2 (centres unmarked) [Example 60] | 2.44 | 80% | 94%
Cn1nc(C(F)F)c(C(=O)N2CCCCC2c2ccc3c(c2)OCCO3)c1F (centres unmarked) [Example 65] | 2.75 | 100% | 90%
Cc1cc(C(=O)N2CCCCC2c2cccc(Cl)c2Cl)c(C)o1 (centres unmarked) [Example 71] | 4.29 | 80% | 80%
CCc1nn(C)c(F)c1C(=O)N1CCCCC1c1cccc(Cl)c1Cl (centres unmarked) [Example 72] | 3.62 | 95% | 95%
Cc1cc(C(=O)N2CCCCC2c2ccc(Cl)cc2Cl)c(C)o1 (centres unmarked) [Example 79] | 4.54 | 80% | –
Cn1nc(C(F)F)c(C(=O)N2CCCCC2c2ccc(Cl)cc2Cl)c1Cl (centres unmarked) [Example 80] | 4.06 | 95% | 100%
Cc1cc(C(=O)N2CCCCC2c2cc(Cl)ccc2Cl)c(C)o1 (centres unmarked) [Example 84] | 4.36 | 90% | –
Cn1nc(C(F)F)c(C(=O)N2CCCCC2c2ccccc2Br)c1Cl (centres unmarked) [Example 90] | 3.55 | 95% | 90%
Cc1cc(C(=O)N2CCCCC2c2cccc(Br)c2)c(C)o1 (centres unmarked) [Example 93] | 4.11 | 95% | 90%
CCc1nn(C)c(F)c1C(=O)N1CCCCC1c1cccc(Br)c1 (centres unmarked) [Example 94] | 3.44 | 70% | 100%
Cn1nc(C(F)F)c(C(=O)N2CCCCC2c2cccc(Br)c2)c1Cl (centres unmarked) [Example 96] | 3.71 | 100% | 100%
Cc1nn(C)c(F)c1C(=O)N1CCCCC1c1ccc(Br)cc1 (centres unmarked) [Example 99] | 3.11 | 100% | 90%
Cc1cc(C(=O)N2CCCCC2c2ccc(Br)cc2)c(C)o1 (centres unmarked) [Example 100] | 4.16 | 70% | –
CCc1nn(C)c(F)c1C(=O)N1CCCCC1c1ccc(Br)cc1 (centres unmarked) [Example 102] | 3.51 | 100% | –
Cn1nc(C(F)F)c(C(=O)N2CCCCC2c2ccc(Br)cc2)c1Cl (centres unmarked) [Example 103] | 3.78 | 95% | 80%
Cn1nc(C(F)F)c(C(=O)N2CCCCC2c2ccc(Br)cc2)c1F (centres unmarked) [Example 104] | 3.60 | 95% | 100%
Cn1nc(C(F)F)c(C(=S)N2CCCCC2c2ccc(Br)cc2)c1F (centres unmarked) [Example 105] | 4.29 | 100% | 100%
CCc1noc(C)c1C(=O)N1CCCCC1c1cccc(Oc2ccccc2)c1 (centres unmarked) [Example 110] | 4.16 | – | 78%

SMILES | logP [1] | Efficacy (Pyrenophora teres) | Efficacy (Alternaria solani)
CCc1nn(C)c(F)c1C(=O)N1CCCCC1c1cccc(Oc2ccccc2)c1 (centres unmarked) [Example 112] | 3.96 | – | 94%
Cc1nn(C)c(F)c1C(=O)N1CCCCC1c1cccc(Oc2ccccc2)c1 (centres unmarked) [Example 113] | 3.60 | 90% | 94%
Cn1nc(C(F)F)c(C(=O)N2CCCCC2c2cccc(Oc3ccccc3)c2)c1Cl (centres unmarked) [Example 114] | 4.18 | 80% | 90%
Cc1cc(C(=O)N2CCCCC2c2cccc(I)c2)c(C)o1 (centres unmarked) [Example 116] | 4.36 | – | 78%
Cc1cc(C(=O)N2CCCCC2c2ccc3ccccc3c2)c(C)o1 (centres unmarked) [Example 120] | 4.39 | 70% | 80%
Cn1nc(C(F)F)c(C(=O)N2CCCCC2c2ccc3ccccc3c2)c1Cl (centres unmarked) [Example 121] | 3.87 | 90% | 80%
Cc1nn(C)c(F)c1C(=O)N1CCCCC1c1ccc(Br)s1 (centres unmarked) [Example 124] | 3.13 | 100% | 95%
CCc1nn(C)c(F)c1C(=O)N1CCCCC1c1ccc(Br)s1 (centres unmarked) [Example 125] | 3.51 | 80% | 90%
Cc1nn(C)c(F)c1C(=O)N1CCCCC1Cc1ccccc1 (centres unmarked) [Example 129] | 2.54 | 100% | 95%
CCc1nn(C)c(F)c1C(=O)N1CCCCC1Cc1ccccc1 (centres unmarked) [Example 131] | 2.92 | 100% | –
Cc1cc(C(=O)N2CCCCC2Cc2ccccc2)c(C)o1 (centres unmarked) [Example 132] | 3.58 | 90% | 90%
Cn1nc(C(F)F)c(C(=O)N2CCCCC2Cc2ccccc2)c1F (centres unmarked) [Example 134] | 3.09 | 100% | 100%
CCC(c1ccccc1)C1CCCCN1C(=O)c1c(C(F)F)nn(C)c1Cl (centres unmarked) [Example 135] | 3.87 | 94% | 95%
CC(c1ccccc1)C1CCCCN1C(=O)c1c(C(F)F)nn(C)c1Cl (centres unmarked) [Example 137] | 3.59 | 100% | 100%
Cc1cc(C(=O)N2CCCCC2Cc2ccccc2C)c(C)o1 (centres unmarked) [Example 141] | 3.87 | – | 90%
Cc1nc(C(F)F)c(C(=O)N2CCCCC2Cc2ccccc2C)s1 (centres unmarked) [Example 142] | 3.50 | 95% | 94%
Cc1cccc(CC2CCCCN2C(=O)c2cc(C)oc2C)c1 (centres unmarked) [Example 143] | 3.96 | – | 80%
Cc1cccc(CC2CCCCN2C(=O)c2c(C(F)F)nn(C)c2F)c1 (centres unmarked) [Example 144] | 3.44 | 100% | 100%
Cc1cccc(CC2CCCCN2C(=O)c2sc(C)nc2C(F)F)c1 (centres unmarked) [Example 145] | 3.57 | 80% | 75%
Cc1ccc(CC2CCCCN2C(=O)c2cc(C)oc2C)cc1 (centres unmarked) [Example 146] | 3.99 | – | 95%
Cc1ccc(CC2CCCCN2C(=O)c2c(C(F)F)nn(C)c2F)cc1 (centres unmarked) [Example 147] | 3.46 | 100% | 100%
Cc1ccc(CC2CCCCN2C(=O)c2sc(C)nc2C(F)F)cc1 (centres unmarked) [Example 148] | 3.59 | 95% | 94%
Cc1nc(C(F)F)c(C(=O)N2CCCCC2Cc2cccc(F)c2)s1 (centres unmarked) [Example 151] | 3.19 | – | 95%
Cc1cc(C(=O)N2CCCCC2Cc2ccc(F)cc2)c(C)o1 (centres unmarked) [Example 155] | 3.57 | – | 78%
COc1ccccc1CC1CCCCN1C(=O)c1sc(C)nc1C(F)F (centres unmarked) [Example 159] | 3.33 | 90% | –
CCC(c1ccccc1Cl)C1CCCCN1C(=O)c1c(C(F)F)nn(C)c1Cl (centres unmarked) [Example 161] | 4.44 | 94% | –
